Values quoted from earlier work as cited in patent publication US9585959B2, “Robust controlled-release formulations” (CAMURUS AB, priority 2011, dated 2017).
*1 amine or outer side, *2 acyl side, *3 side chain or, on linkers, in order; H or OH if unused. Where a SMILES comes first, the peptide text is derived from it. Side-chain parts run from the residue outwards. [ ]: non-standard residue; d: D form. The star is where a group is joined. Ethylenediamine = C(CN[*:2])N[*:1]; Hyp = O=C(O)[C@@H]1C[C@@H](O)CN1; Phg = N[C@H](C(=O)O)c1ccccc1; CO = O=C([*:1])[*:2]; Bn = c1ccc(C*)cc1

Experiments:
[1] = system: somatostatin receptor subtypes sstr1,2,3 and sstr5
[2] = system: SSTRs (SSTR1-SSTR5)
[3] = in vivo

NCCCC[C@@H]1NC(=O)[C@@H](Cc2c[nH]c3ccccc23)NC(=O)[C@H](c2ccccc2)NC(=O)[C@@H]2C[C@@H](OC(=O)NCCN)CN2C(=O)[C@H](Cc2ccccc2)NC(=O)[C@H](Cc2ccc(OCc3ccccc3)cc2)NC1=O [Pasireotide] (cyclo(F[Hyp]([CO-Ethylenediamine])[Phg][dW]KY(Bn)))
Affinity [1]: high affinity

C[C@@H](O)[C@@H]1NC(=O)[C@H](CCCCN)NC(=O)[C@@H](Cc2c[nH]c3ccccc23)NC(=O)[C@H](Cc2ccccc2)NC(=O)[C@@H](NC(=O)[C@H](N)Cc2ccccc2)CSSC[C@@H](C(=O)N[C@H](CO)[C@@H](C)O)NC1=O [Octreotide, D-Phe-Cys-Phe-D-Trp-Lys-Thr-Cys-Thr-ol (2-7 disulphide bridge)]
Selectivity ([2]; for SSTR2 and SSTR5): high selectivity

Ala-Gly-Cys-Lys-Asn-Phe-Phe-Trp-Lys-Thr-Phe-Thr-Ser-Cys [SST-14]
Biological half-life [3]: 1-3 minutes | Affinity of the five SSTRs ([2]; SSTR1-SSTR5): equally high affinity
